The results in this text go back to ChEMBL document CHEMBL1130861, “Synthesis and proteinase inhibitory properties of diphenyl phosphonate analogues of aspartic and glutamic acids” (1998).

SMILES strings stand for the structures.

Assay [1] concerns the target Granzyme B (Homo sapiens) (UniProt P10144). Kind of assay: Apparent second-order rate constant was determined by the inhibition of Granzyme B with the compound at the concentration 150 mM; ki/Ki(1/M*s), Not inhibited.
In another assay the test system is Staphylococcus aureus. In words: Apparent second-order rate constant was determined by the inactivation of Staphylococcus aureus V8 proteinase with the compound at the concentration 100 mM(pH 7.4); ki/Ki(1/M*s). It counts as functional.

Chain of Granzyme B (Homo sapiens) (P10144 whole entry): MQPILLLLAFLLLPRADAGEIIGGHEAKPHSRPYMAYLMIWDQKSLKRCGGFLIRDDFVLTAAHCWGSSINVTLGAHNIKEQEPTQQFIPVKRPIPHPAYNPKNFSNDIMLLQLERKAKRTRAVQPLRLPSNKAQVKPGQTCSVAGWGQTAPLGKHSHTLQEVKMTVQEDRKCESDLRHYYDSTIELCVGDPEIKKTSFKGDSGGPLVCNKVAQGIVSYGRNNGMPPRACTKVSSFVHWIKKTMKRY

As to `CC(=O)N[C@H](CCC(=O)O)P(=O)(Oc1ccccc1)Oc1ccccc1`, the values for the Activity result (in assay [1]; in the assay with Staphylococcus aureus) were “No inhibition” and 5.3, respectively.
On to `CC(=O)N[C@H](CC(=O)O)P(=O)(Oc1ccccc1)Oc1ccccc1`, for which the Activity entry in assay [1] was “No inhibition”; in the assay with Staphylococcus aureus it was 5.
